Non-standard residues stand in square brackets, D forms with d. No end group written: not given here. Aib = CC(C)(N)C(=O)O
Key:
insulin receptor (IR-B) = molecular target: T1, insulin receptor (IR-B) (Homo sapiens, UniProt P06213); experiment: In vitro activity at insulin B receptor (IR-B); assay type: cell-based; conditions: FIG. 1B
T1 construct: expressed in transfected cells
Method: Color development was stopped 5 min later by adding 0.05 ml 1 N HCl. Absorbance at 450 nm was measured on Titertek Multiscan MCC340 (ThermoFisher, Pittsburgh, Pa.). […] Structures associated with the abbreviated lipidated groups designated in Table 4 are as follows: […]

[1] = molecular target: insulin subtype A receptor (Homo sapiens, UniProt P06213); experiment: In vitro activity at insulin subtype A receptor; assay type: cell-based; conditions: FIG. 1A
[2] = Dose titration on food intake and blood glucose (FIGS. 20-25); assay type: in vivo
[3] = tested on: GPL-1 receptor knock out mice; experiment: Glucose tolerance test and food intake in GLP-1 receptor knock out mice; assay type: in vivo; conditions: GLP-1 knock out mice; 3 nmol/kg; FIG. 28
Source text: FIG. 26 is a graph of a glucose tolerance test conducted on wild type mice (solid lines) and on GPL-1 receptor knock out mice (dashed lines).

normal mice = experiment: Blood glucose after single administration to normal mice; assay type: in vivo; conditions: 50 nmoles/kg, FIG. 8
Method: Six- to eight-week-old male C57BL/6 mice were maintained at 23° C., constant humidity, and a 12-h light-dark cycle. The acute in vivo effects of select peptides were evaluated by subcutaneously injecting peptides solubilized in physiologically buffered saline or a vehicle control to normal or diabetic mice. Blood glucose was measured at various time points through the course of a 24 hr period following administration of the peptides. Each group of mice contained 8 animals per group. The average body weight was ˜25 g. Mice were made diabetic by administration of streptozotocin.

Substance: GLP-DP8: GLP-1/insulin fusion, SEQ ID NO: 700; GLP-1 agonist peptide fused to the N-terminus of a single chain insulin analog (HAEGTFTSDVSSYLEEQAAREFIAWLVRGRG; GLP-1 analog)
- potency at the insulin B receptor (insulin receptor (IR-B)): about 9.9 nanomoles
- potency at the A receptor [1]: about 2.07 nanomoles

Substance: CIU-093: XEGTFTSDUSIYLDKQAAXEFVNWLLAGGPSSGAPPPS (SEQ ID NO: 1996); C(S-S)—CH2CH2CH2-B^1 Insulin
- food intake ([2]; FIG. 22): does not suppress food intake
- blood glucose ([2]; FIG. 25): a much higher dosage is required to get the same glucose lowering
- food intake [3]: no reduction in food intake

Substance: IUB-48: GLP-1 agonist, HXEGTFTSDVSSYLEEQAAKEFIAWLVKGGPSSGAPPPS (SEQ ID NO: 1932) (H[Aib]EGTFTSDVSSYLEEQAAKEFIAWLVKGGPSSGAPPPS)
- blood glucose levels (normal mice): about 60 mg/dL

Reference: patent publication US10232020B2, “Incretin-insulin conjugates” (priority 2014, dated 2019)
